The source of these data is patent US20240158392A1 (Janssen Biotech, Inc., priority 2021, published 2024).

Molecules are shown by their SMILES. Some results are limits rather than exact numbers.

For the assay, the target named is SIK2 (Homo sapiens, UniProt Q9H0K1). Kind of assay: SIK2 Enzymatic Assay High Version 2 (High ATP). The format is biochemical. The note with it: enzyme 6 nM, 6 mM ATP and 400 μM HDAC5tide (each 2× final concentration); 30 minutes pre-incubation, 2 hours; ADP-Glo Max luminescence; read-out: SIK2 high ATP IC50 (μM) (Test Example 2). The procedure, abridged:
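At room temperature, enzyme (6 nM, 2× final) was preincubated with compound for 30 min, then 6 mM ATP and 400 μM HDAC5tide (both 2× final) were added for 2 h. ADP formed was measured by ADP-Glo Max (2 h reagent, 1 h detection) using luminescence.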
In general terms: ADP-Glo first removes unused ATP, then detects ADP through luciferase.

SIK2, sequence (Q9H0K1 whole entry, species assumed): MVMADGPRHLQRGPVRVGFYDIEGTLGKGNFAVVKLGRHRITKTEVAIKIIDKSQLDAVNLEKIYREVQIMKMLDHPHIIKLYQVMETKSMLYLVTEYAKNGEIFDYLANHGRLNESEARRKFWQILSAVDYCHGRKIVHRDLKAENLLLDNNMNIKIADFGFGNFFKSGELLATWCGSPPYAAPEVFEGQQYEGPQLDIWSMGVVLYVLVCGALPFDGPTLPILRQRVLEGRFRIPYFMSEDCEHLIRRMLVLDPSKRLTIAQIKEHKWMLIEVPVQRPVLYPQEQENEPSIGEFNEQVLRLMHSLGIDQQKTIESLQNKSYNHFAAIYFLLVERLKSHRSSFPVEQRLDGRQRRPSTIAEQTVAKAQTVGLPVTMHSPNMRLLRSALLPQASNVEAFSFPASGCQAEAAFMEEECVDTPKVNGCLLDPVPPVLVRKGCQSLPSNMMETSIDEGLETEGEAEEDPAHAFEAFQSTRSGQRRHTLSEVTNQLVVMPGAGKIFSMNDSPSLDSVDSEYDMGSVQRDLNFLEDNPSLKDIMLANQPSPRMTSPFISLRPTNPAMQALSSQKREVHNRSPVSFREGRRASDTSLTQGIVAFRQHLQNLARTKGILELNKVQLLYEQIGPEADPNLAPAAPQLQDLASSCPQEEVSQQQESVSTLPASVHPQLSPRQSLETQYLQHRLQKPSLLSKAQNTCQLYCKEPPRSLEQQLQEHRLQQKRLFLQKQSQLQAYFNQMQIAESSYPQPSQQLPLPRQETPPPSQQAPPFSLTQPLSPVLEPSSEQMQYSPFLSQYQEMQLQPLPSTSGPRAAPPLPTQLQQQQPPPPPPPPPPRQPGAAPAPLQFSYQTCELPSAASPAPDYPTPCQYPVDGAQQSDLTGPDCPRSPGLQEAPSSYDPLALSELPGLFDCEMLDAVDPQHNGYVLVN

Consider `Cc1cc(Nc2cc3cc(-c4cc(OCC(F)F)ncc4OCC(C)(C)C#N)ccn3n2)nc(C)n1` [Example 660, 3-[[6-(2,2-difluoroethoxy)-4-[2-[(2,6-dimethylpyrimidin-4-yl)amino]pyrazolo[1,5-a]pyridin-5-yl]-3-pyridyl]oxy]-2,2-dimethyl-propanenitrile], for which the IC50 (commonly the concentration at which inhibition is half-maximal) was 0.184 µM. To `Cc1cc(Nc2cc3cc(-c4cc(OCC(F)(F)F)ncc4OCC(C)(C)O)ccn3n2)nc(C)n1` [Example 661, 1-[[4-[2-[(2,6-dimethylpyrimidin-4-yl)amino]pyrazolo[1,5-a]pyridin-5-yl]-6-(2,2,2-trifluoroethoxy)-3-pyridyl]oxy]-2-methyl-propan-2-ol] belongs 0.0749 µM. As for `Cc1cc(Nc2cc3cc(-c4cc(OCC(F)(F)F)ncc4O[C@H]4CC[C@H](O)CC4)ccn3n2)nc(C)n1` [Example 664, 4-[[4-[2-[(2,6-dimethylpyrimidin-4-yl)amino]pyrazolo[1,5-a]pyridin-5-yl]-6-(2,2,2-trifluoroethoxy)-3-pyridyl]oxy]cyclohexanol], the IC50 amounted to 0.0953 µM.

In the case of `CC(C)(C#N)COc1cnc(OC(F)F)cc1-c1ccn2nc(NC(=O)C3CC3)cc2c1` [Example 665, N-[5-[5-(2-cyano-2-methyl-propoxy)-2-(difluoromethoxy)-4-pyridyl]pyrazolo[1,5-a]pyridin-2-yl]cyclopropanecarboxamide], the IC50 came out at 0.0244 µM. Take `CC(C)(C#N)COc1cnc(Cl)cc1-c1ccn2nc(NC(=O)C3CC3)cc2c1` [Example 666, N-[5-[2-chloro-5-(2-cyano-2-methyl-propoxy)-4-pyridyl]pyrazolo[1,5-a]pyridin-2-yl]cyclopropanecarboxamide]: the concentration for half-maximal inhibition (IC50) was 0.0555 µM. `Cc1cc(Nc2cc3cc(-c4cc(NCC(F)F)ncc4OCC(C)(C)C#N)ccn3n2)nc(C)n1` [Example 667, 3-[[6-(2,2-difluoroethylamino)-4-[2-[(2,6-dimethylpyrimidin-4-yl)amino]pyrazolo[1,5-a]pyridin-5-yl]-3-pyridyl]oxy]-2,2-dimethyl-propanenitrile]: the IC50 is 0.0127 µM. As to `COCc1cc(-c2ccn3nc(Nc4cc(C)nc(C)n4)cc3c2)c(OCC(C)(C)C#N)cn1` [Example 668, 3-[[4-[2-[(2,6-dimethylpyrimidin-4-yl)amino]pyrazolo[1,5-a]pyridin-5-yl]-6-(methoxymethyl)-3-pyridyl]oxy]-2,2-dimethyl-propanenitrile], the IC50 came to 0.319 µM. To `CC(C)(C#N)COc1cnc(OCC(F)(F)F)cc1-c1ccn2nc(NC(=O)C3CC3)cc2c1` [Example 669, N-[5-[5-(2-cyano-2-methyl-propoxy)-2-(2,2,2-trifluoroethoxy)-4-pyridyl]pyrazolo[1,5-a]pyridin-2-yl]cyclopropanecarboxamide] belongs 0.0526 µM. In the case of `CC#Cc1cc(-c2ccn3nc(Nc4cc(C)nc(C)n4)cc3c2)c(OCC(C)(C)C#N)cn1` [Example 670, 3-[[4-[2-[(2,6-dimethylpyrimidin-4-yl)amino]pyrazolo[1,5-a]pyridin-5-yl]-6-prop-1-ynyl-3-pyridyl]oxy]-2,2-dimethyl-propanenitrile], the concentration for half-maximal inhibition (IC50) amounted to 0.0831 µM. Turning to `CC#Cc1cc(-c2ccn3nc(Nc4cc(C)nc(C)n4)cc3c2)c(OC[C@@H]2OCC[C@H]2O)cn1` [Example 671, (2S,3R)-2-[[4-[2-[(2,6-dimethylpyrimidin-4-yl)amino]pyrazolo[1,5-a]pyridin-5-yl]-6-prop-1-ynyl-3-pyridyl]oxymethyl]tetrahydrofuran-3-ol], the IC50 was 0.204 µM. In the case of `Cc1cc(Nc2cc3cc(-c4cc(OCC#N)ncc4OCC(C)(C)C#N)ccn3n2)nc(C)n1` [Example 672, 3-[[6-(cyanomethoxy)-4-[2-[(2,6-dimethylpyrimidin-4-yl)amino]pyrazolo[1,5-a]pyridin-5-yl]-3-pyridyl]oxy]-2,2-dimethyl-propanenitrile], the IC50 came out at 0.004 µM. On to `Cc1cc(Nc2cc3cc(-c4cc(OCCF)ncc4OCC(C)(C)C#N)ccn3n2)nc(C)n1` [Example 673, 3-[[4-[2-[(2,6-dimethylpyrimidin-4-yl)amino]pyrazolo[1,5-a]pyridin-5-yl]-6-(2-fluoroethoxy)-3-pyridyl]oxy]-2,2-dimethyl-propanenitrile], for which the IC50 amounted to 0.00229 µM. For the compound `CNc1nc(C)cc(Nc2cc3cc(-c4cc(O)ncc4OCC(C)(C)C#N)ccn3n2)n1` [Example 674, 3-[[6-hydroxy-4-[2-[[6-methyl-2-(methylamino)pyrimidin-4-yl]amino]pyrazolo[1,5-a]pyridin-5-yl]-3-pyridyl]oxy]-2,2-dimethyl-propanenitrile], the IC50 worked out at 0.063 µM.

On to `CNc1nc(C)cc(Nc2cc3cc(-c4cc(Cl)ncc4OCC(C)(C)C#N)ccn3n2)n1` [Example 675, 3-[[6-chloro-4-[2-[[6-methyl-2-(methylamino)pyrimidin-4-yl]amino]pyrazolo[1,5-a]pyridin-5-yl]-3-pyridyl]oxy]-2,2-dimethyl-propanenitrile], for which the IC50 turned out to be 0.0391 µM. In the case of `CNc1nc(C)cc(Nc2cc3cc(-c4cc(OC(F)F)ncc4OCC(C)(C)C#N)ccn3n2)n1` [Example 676, 3-[[6-(difluoromethoxy)-4-[2-[[6-methyl-2-(methylamino)pyrimidin-4-yl]amino]pyrazolo[1,5-a]pyridin-5-yl]-3-pyridyl]oxy]-2,2-dimethyl-propanenitrile], the half-inhibitory concentration (IC50) came out at 0.108 µM. In the case of `Cc1cc(Nc2cc3cc(-c4cc(OC(F)F)ncc4O[C@H]4CC[C@H](O)CC4)ccn3n2)nc(C)n1` [Example 677, (1r,4r)-4-[[6-(difluoromethoxy)-4-[2-[(2,6-dimethylpyrimidin-4-yl)amino]pyrazolo[1,5-a]pyridin-5-yl]-3-pyridyl]oxy]cyclohexanol] it was 0.000935 µM; in that of `Cc1cc(Nc2cc3cc(-c4cc(OCCO)ncc4OCC(C)(C)C#N)ccn3n2)nc(C)n1` [Example 678, 3-[[4-[2-[(2,6-dimethylpyrimidin-4-yl)amino]pyrazolo[1,5-a]pyridin-5-yl]-6-(2-hydroxyethoxy)-3-pyridyl]oxy]-2,2-dimethyl-propanenitrile], 0.0443 µM; in that of `Cc1cc(Nc2cc3cc(-c4cc(OC(F)F)ncc4OCC(C)(C)O)ccn3n2)nc(C)n1` [Example 679, 1-[[6-(difluoromethoxy)-4-[2-[(2,6-dimethylpyrimidin-4-yl)amino]pyrazolo[1,5-a]pyridin-5-yl]-3-pyridyl]oxy]-2-methyl-propan-2-ol], 0.00319 µM. As for `Cc1cc(Nc2cc3cc(-c4cc(OC(F)F)ncc4OCC(C)(C)C#N)ccn3n2)nc(N)n1` [Example 682, 3-[[4-[2-[(2-amino-6-methyl-pyrimidin-4-yl)amino]pyrazolo[1,5-a]pyridin-5-yl]-6-(difluoromethoxy)-3-pyridyl]oxy]-2,2-dimethyl-propanenitrile], the IC50 was under 0.000847 µM. Consider `Cc1cncc(Nc2cc3cc(-c4cc(OC(F)F)ncc4OCC(C)(C)C#N)ccn3n2)n1` [Example 683, 3-[[6-(difluoromethoxy)-4-[2-[(6-methylpyrazin-2-yl)amino]pyrazolo[1,5-a]pyridin-5-yl]-3-pyridyl]oxy]-2,2-dimethyl-propanenitrile], for which the IC50 came to 0.000974 µM. In the case of `Cc1cc(Nc2cc3cc(-c4cc(OC(F)F)ncc4OCC(C)(C)C#N)ccn3n2)nn(C)c1=O` [Example 684, 3-[[6-(difluoromethoxy)-4-[2-[(1,5-dimethyl-6-oxo-pyridazin-3-yl)amino]pyrazolo[1,5-a]pyridin-5-yl]-3-pyridyl]oxy]-2,2-dimethyl-propanenitrile], the IC50 was 0.0102 µM. On to `Cc1cc(Nc2cc3cc(-c4cc(OC(F)F)ncc4OCC(C)(C)C#N)ccn3n2)ncn1` [Example 685, 3-[[6-(difluoromethoxy)-4-[2-[(6-methylpyrimidin-4-yl)amino]pyrazolo[1,5-a]pyridin-5-yl]-3-pyridyl]oxy]-2,2-dimethyl-propanenitrile], for which the IC50 was determined as 0.0312 µM.

Turning to `Cc1cc(-c2ccn3nc(Nc4cc(C)nc(C)n4)cc3c2)c(OC[C@H]2C[C@H](C#N)C2)cn1` [Example 686, 3-[[4-[2-[(2,6-dimethylpyrimidin-4-yl)amino]pyrazolo[1,5-a]pyridin-5-yl]-6-methyl-3-pyridyl]oxymethyl]cyclobutanecarbonitrile], the IC50 worked out at 0.0179 µM. With `Cc1cc(-c2ccn3nc(Nc4cc(C)nc(C)n4)cc3c2)c(OC[C@H]2C[C@@H](C#N)C2)cn1` [Example 687, 3-[[4-[2-[(2,6-dimethylpyrimidin-4-yl)amino]pyrazolo[1,5-a]pyridin-5-yl]-6-methyl-3-pyridyl]oxymethyl]cyclobutanecarbonitrile], the IC50 turned out to be 0.0759 µM. Take `CC(C)(C#N)COc1cnc(OCC(F)F)cc1-c1ccn2nc(Nc3cccnn3)cc2c1` [Example 688, 3-[[6-(2,2-difluoroethoxy)-4-[2-(pyridazin-3-ylamino)pyrazolo[1,5-a]pyridin-5-yl]-3-pyridyl]oxy]-2,2-dimethyl-propanenitrile]: the IC50 was 0.00121 µM. Consider `CC(C)(C#N)COc1cnc(OCC(F)F)cc1-c1ccn2nc(Nc3cnccn3)cc2c1` [Example 689, 3-[[6-(2,2-difluoroethoxy)-4-[2-(pyrazin-2-ylamino)pyrazolo[1,5-a]pyridin-5-yl]-3-pyridyl]oxy]-2,2-dimethyl-propanenitrile], for which the IC50 turned out to be 0.00136 µM. As to `Cc1cc(Nc2cc3cc(-c4cc(OCC#N)ncc4O[C@H]4CC[C@H](O)CC4)ccn3n2)nc(C)n1` [Example 690, 2-[[4-[2-[(2,6-dimethylpyrimidin-4-yl)amino]pyrazolo[1,5-a]pyridin-5-yl]-5-(4-hydroxycyclohexoxy)-2-pyridyl]oxy]acetonitrile], the IC50 is 0.00685 µM. To `CC(C)(C#N)COc1cnc(OC(F)F)cc1-c1ccn2nc(Nc3cncc(N)n3)cc2c1` [Example 691, 3-[[4-[2-[(6-aminopyrazin-2-yl)amino]pyrazolo[1,5-a]pyridin-5-yl]-6-(difluoromethoxy)-3-pyridyl]oxy]-2,2-dimethyl-propanenitrile] belongs 0.001 µM.
